The values that follow come from article PMC8220418, “A fragment-based approach to assess the ligandability of ArgB, ArgC, ArgD and ArgF in the L-arginine biosynthetic pathway of Mycobacterium tuberculosis” (Computational and Structural Biotechnology Journal, 2021).

The experiment relates to M. tuberculosis ΔargB. Format: cell-based, Mycobacterium tuberculosis.
`NC(N)=NOCC[C@H](N)C(=O)O` [L-canavanine, reference compound]: the “Inhibitory activity on growth with arginine present” value (“Inhibitory activity on growth” for short) is on record as “no inhibitory activity”.

On to `O=c1cc[nH]c2c(C(F)(F)F)cccc12` [NMR446, 8-(trifluoromethyl)-1H-quinolin-4-one], for which the “Inhibitory activity on growth” value is listed as “no inhibitory activity”.

Regarding `O=c1cc(C(F)(F)F)[nH]c2c(C(F)(F)F)cccc12` [NMR711, 2,8-bis(trifluoromethyl)-1H-quinolin-4-one], the “Inhibitory activity on growth” value was “inhibitory”.
